Read-outs that look alike come from different tables or passages of the source.
What was measured:
RKO cells = assay: RKO Methylation Assay (In Cell Western for mono-methyl arginine and DNA content); type: cell-based; details: Homo sapiens
Text: RKO adherent cells were purchased from ATCC (American Type Culture Collection), Manassas, Va., USA. DMEM/Glutamax medium, penicillin-streptomycin, heat inactivated fetal bovine serum, 0.05% trypsin and D-PBS were purchased from Life Technologies, Grand Island, N.Y., USA. Odyssey blocking buffer, 800CW goat anti-rabbit IgG (H+L) antibody, and Licor Odyssey infrared scanner were purchased from Licor Biosciences, Lincoln, Nebr., USA. Mono-methyl arginine antibody was purchased from Cell Signaling Technology, Danvers, Mass., USA. Methanol was purchased from VWR, Franklin, Mass., USA. 10% Tween 20 was purchased from KPL, Inc., Gaithersburg, Md., USA. DRAQ5 was purchased from Biostatus Limited, Leicestershire, UK.
RKO adherent cells were maintained in growth medium (DMEM/Glutamax medium supplemented with 10% v/v heat inactivated fetal bovine serum and 100 units/mL penicillin-streptomycin) and cultured at 37° C. under 5% CO2.
Cell Treatment, in Cell Western (ICW) for Detection of Mono-Methyl Arginine and DNA Content.
Compound (100 nL) from a 96-well source plate was added directly to 384 well cell plate. Plates were incubated at 37° C., 5% CO2 for 72 hours. After three days of incubation, plates were brought to room temperature outside of the incubator for ten minutes and blotted on paper towels to remove cell media. 50 μL of ice cold 100% methanol was added directly to each well and incubated for 30 min at room temperature. After 30 min, plates were transferred to a Biotek EL406 plate washer and washed 2 times with 100 μL per well of wash buffer (1×PBS). Next 60 μL per well of Odyssey blocking buffer (Odyssey Buffer with 0.1% Tween 20 (v/v)) were added to each plate and incubated 1 hour at room temperature. Blocking buffer was removed and 20 μL per well of primary antibody was added (mono-methyl arginine diluted 1:200 in Odyssey buffer with 0.1% Tween 20 (v/v)) and plates were incubated overnight (16 hours) at 4° C. Plates were washed 5 times with 100 µL per well of wash buffer. Next 20 μL per well of secondary antibody was added (1:200 800CW goat anti-rabbit IgG (H+L) antibody, 1:1000 DRAQ5 (Biostatus limited) in Odyssey buffer with 0.1% Tween 20 (v/v)) and incubated for 1 hour at room temperature. The plates were washed 5 times with 100 μL per well wash buffer then 2 times with 100 μL per well of water. Plates were allowed to dry at room temperature then imaged on the Licor Odyssey machine which measures integrated intensity at 700 nm and 800 nm wavelengths. Both 700 and 800 channels were scanned.
First, the ratio for each well was determined by:
Each plate included fourteen control wells of DMSO only treatment (minimum activation) as well as fourteen control wells for maximum activation treated with 20 μM of a reference compound. The average of the ratio values for each control type was calculated and used to determine the percent activation for each test well in the plate. Reference compound was serially diluted three-fold in DMSO for a total of nine test concentrations, beginning at 20 μM. Percent activation was determined and EC30 curves were generated using triplicate wells per concentration of compound.

PRMT1 = target: T1, PRMT1 (Homo sapiens, UniProt Q99873); assay: PRMT1 Biochemical Assay (3H-SAM Flashplate, histone H4 peptide substrate); details: Biochemical IC50 (Numerical, μM) PRMT1, single experiment or average of multiple experiments, Table 2a
T1 construct: GST-tagged PRMT1; made in house; host or cells: High Five insect cells (baculovirus, pFastBacI)
T1 sequence (Q99873 with tags, fused parts or gaps): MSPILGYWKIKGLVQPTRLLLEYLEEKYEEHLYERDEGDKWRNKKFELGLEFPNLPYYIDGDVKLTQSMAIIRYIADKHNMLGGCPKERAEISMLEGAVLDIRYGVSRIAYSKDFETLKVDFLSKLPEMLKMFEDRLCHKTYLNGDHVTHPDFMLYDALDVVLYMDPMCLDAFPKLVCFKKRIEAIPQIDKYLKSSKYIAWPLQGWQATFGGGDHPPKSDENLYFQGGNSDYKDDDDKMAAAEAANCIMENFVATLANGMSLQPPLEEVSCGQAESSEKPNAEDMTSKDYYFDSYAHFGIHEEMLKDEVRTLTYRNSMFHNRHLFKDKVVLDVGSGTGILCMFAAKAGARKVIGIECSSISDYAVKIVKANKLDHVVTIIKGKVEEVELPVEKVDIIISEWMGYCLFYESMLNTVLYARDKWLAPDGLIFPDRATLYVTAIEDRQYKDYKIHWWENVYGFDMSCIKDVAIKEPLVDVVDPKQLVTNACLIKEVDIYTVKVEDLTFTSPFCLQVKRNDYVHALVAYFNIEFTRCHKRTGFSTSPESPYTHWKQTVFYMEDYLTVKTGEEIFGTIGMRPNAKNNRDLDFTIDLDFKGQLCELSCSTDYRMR
Text: S-adenosylmethionine (SAM), S-adenosylhomocysteine (SAH), bicine, Tween20, dimethylsulfoxide (DMSO), bovine skin gelatin (BSG), and Tris(2-carboxyethyl)phosphine hydrochloride solution (TCEP) were purchased from Sigma-Aldrich at the highest level of purity possible. ^3H-SAM was purchase from American Radiolabeled Chemicals with a specific activity of 80 Ci/mmol. 384-well streptavidin Flashplates were purchased from PerkinElmer.
Recombinant baculovirus were generated according to Bac-to-Bac kit instructions (Life Technologies). Protein over-expression was accomplished by infecting exponentially growing High Five insect cell culture at 1.5×10^6 cell/ml with 1:100 ratio of virus. Infections were carried out at 27° C. for 48 hours, harvested by centrifugation, and stored at −80° C. for purification.
GST-tagged PRMT1 was eluted with 50 mM Tris, 2 mM glutathione, pH 7.8, dialysed in buffer A and concentrated to 1 mg/mL.
General Procedure for PRMT1 Enzyme Assays on Peptide Substrates.
The assays were all performed in a buffer consisting of 20 mM Bicine (pH=7.6), 1 mM TCEP, 0.005% BSG, and 0.002% Tween 20, prepared on the day of use. […] DMSO (1 ul) was added to Columns 11, 12, 23, 24, rows A-H for the maximum signal control and 1 ul of SAH, a known product and inhibitor of PRMT1, was added to columns 11, 12, 23, 24, rows I-P for the minimum signal control. A cocktail (40 ul) containing the PRMT1 enzyme was added by Multidrop Combi (Thermo-Fisher). The compounds were allowed to incubate with PRMT1 for 30 min at room temperature, then a cocktail (10 ul) containing SAM and peptide was added to initiate the reaction (final volume=51 ul). […] The assays were stopped by the addition of non-radiolabeled SAM (10 ul) to a final concentration of 300 uM, which dilutes the ^3H-SAM to a level where its incorporation into the peptide substrate is no longer detectable. […] The plates were then read in a PerkinElmer TopCount plate reader to measure the quantity of ^3H-labeled peptide bound to the Flashplate surface, measured as disintegrations per minute (dpm) or alternatively, referred to as counts per minute (cpm).
Where dpm=disintegrations per minute, cmpd=signal in assay well, and min and max are the respective minimum and maximum signal controls.
Where top and bottom are the normally allowed to float, but may be fixed at 100 or 0 respectively in a 3-parameter fit. The Hill Coefficient normally allowed to float but may also be fixed at 1 in a 3-parameter fit. Y is the % inhibition and X is the compound concentration.

[1] = RKO, 72 h, read-out: In Cell Western data (Numerical, μM) EC30
[2] = RKO, 72 h, read-out: In Cell Western data EC30
[3] = RKO cells, 72 hours, mono-methyl arginine, class symbols, Table 3, read-out: In Cell Western data EC30
[4] = RKO cells, 72 hours, mono-methyl arginine, single experiment or average of multiple experiments, Table 3a, read-out: In Cell Western data (Numerical, μM) EC30

SMILES	EC30 (RKO cells; [1])	EC30 (RKO cells; [2])	IC50 (PRMT1)	EC30 (RKO cells; [3])	EC30 (RKO cells; [4])
CNCCN(C)Cc1c[nH]nc1-c1cc(Cl)c(OCC2CCC2)c(C(F)(F)F)c1 [Compound 35]	0.694 µM	< 3 µM	0.00431 µM		
CNCCN(C)Cc1c[nH]nc1-c1cc(Oc2cccnc2)cc(C(F)(F)F)c1 [Compound 51]			0.0513 µM	3.01 to 12 µM	6.9 µM
CNCCN(C)Cc1c[nH]nc1-c1cc(C)c(OC2CCOCC2)c(C(F)(F)F)c1 [Compound 59]	1.37 µM	< 3 µM	0.0316 µM		
CNCCN(C)Cc1c[nH]nc1-c1cc(OCCOC)c(F)c(C(F)(F)F)c1 [Compound 64]	13.2 µM	> 12 µM	0.104 µM		
CNCCN(C)Cc1n[nH]cc1-c1ccc(OCCOC)c(C(F)(F)F)c1 [Compound 21]			0.0328 µM	< 3 µM	0.812 µM
CNCCN(C)Cc1c[nH]nc1-c1cc(Oc2ccccc2)cc(C(F)(F)F)c1 [Compound 36]			0.0123 µM	< 3 µM	2.18 µM
CCC(CC)Oc1cc(-c2n[nH]cc2CN(C)CCNC)cc(C(F)(F)F)c1 [Compound 47]			0.0135 µM	< 3 µM	2.67 µM
CCCOc1ccc(-c2n[nH]cc2CN(C)CCNC)cc1C(F)(F)F [Compound 11]	0.558 µM	< 3 µM	0.00462 µM		
CNCCN(C)Cc1n[nH]cc1-c1ccc(OCCCOC)c(C(F)(F)F)c1 [Compound 20]			0.0553 µM	< 3 µM	2.04 µM
CNCCN(C)Cc1c[nH]nc1-c1cc(Cl)c(OC(C)C)c(C(F)(F)F)c1 [Compound 25]	0.983 µM	< 3 µM	0.0101 µM		
CNCCN(C)Cc1n[nH]cc1-c1ccc(OCC(C)C)c(C(F)(F)F)c1 [Compound 18]			0.00988 µM	< 3 µM	2.69 µM
CNCCN(C)Cc1c[nH]nc1-c1cc(OCCCC(C)=O)cc(C(F)(F)F)c1 [Compound 49]			0.0366 µM	3.01 to 12 µM	3.36 µM
CNCCN(C)Cc1c[nH]nc1-c1cc(OCCCOC)cc(C(F)(F)F)c1 [Compound 24]			0.0229 µM	3.01 to 12 µM	4.02 µM
CNCCN(C)Cc1n[nH]cc1-c1cc(OCCOC)cc(C(F)(F)F)c1 [Compound 30]			0.109 µM	3.01 to 12 µM	13.1 µM
CC(C)Oc1cc(-c2n[nH]cc2CN(C)CCN)cc(C(F)(F)F)c1 [Compound 6]	10.8 µM	3.01 to 12 µM	0.0687 µM		
CNCCN(C)Cc1c[nH]nc1-c1cc(Cl)c(OCC2CC2)c(C(F)(F)F)c1 [Compound 41]	2.39 µM	< 3 µM	0.00636 µM		
CNCCN(C)Cc1c[nH]nc1-c1cc(C)c(OC2COC2)c(C(F)(F)F)c1 [Compound 66]	0.724 µM	< 3 µM	0.00756 µM		
CNCCN(C)Cc1c[nH]nc1-c1ccc(CC(C)C)c(C(F)(F)F)c1 [Compound 34]	0.955 µM	< 3 µM	0.00444 µM		
CNCCN(C)Cc1c[nH]nc1-c1ccc(OCCOC)c(C(F)(F)F)c1 [Compound 14]	0.383 µM	< 3 µM	0.00554 µM		
CNCCN(C)Cc1c[nH]nc1-c1ccc(OCC(C)C)c(C(F)(F)F)c1 [Compound 10]	0.537 µM	< 3 µM	0.00451 µM		
